Measured values reported in patent US9409893B2, “Heteroaryl derivatives and uses thereof” (Jacobus Pharmaceutical Company, Inc., priority 2012, dated 2016).

Experiment: Solubility in hERG test solution (HB-PS + 0.3% DMSO)
Assay type: physicochemical
Conditions: 30 μM nominal concentration
Procedure: All chemicals used in solution preparation were purchased from Sigma-Aldrich (St. Louis, Mo.) unless otherwise noted and were of ACS reagent grade purity or higher. Stock solutions of the test article and the positive control were prepared in dimethyl sulfoxide (DMSO) and stored frozen. Test article and positive control concentrations were prepared fresh daily by diluting stock solutions into a HEPES-buffered physiological saline (HB-PS) solution (composition in mM): NaCl, 137; KCl, 4.0; CaCl2, 1.8; MgCl2, 1; HEPES, 10; Glucose, 10; pH adjusted to 7.4 with NaOH (prepared weekly and refrigerated until use).
Experiments were performed as outlined in the section entitled Experimental Procedures. Concentrations were selected to evaluate the concentration-response relationship of each test article based on the initial results or the solubility limits in vehicle. Each concentration was tested in at least three cells (n≧3).
Each test article at 10 μM was applied to at least 3 cells (n≧3).

Structure (SMILES)	Solubility in hERG test solution
CC(C)(C)NCc1cc(C(C)(C)C)cc(-c2cnc(C(F)(F)F)nc2)c1O.Cl [Example 33, 4-(tert-Butyl)-2-((tert-butylamino)methyl)-6-(2-(trifluoromethyl)pyrimidin-5-yl)phenol hydrochloride]	not in solution
CC(C)(C)NCc1cc(C(C)(C)C)cc(-c2cnc(C(F)(F)F)c(F)c2)c1O.Cl [Example 34, 4-(tert-Butyl)-2-((tert-butylamino)methyl)-6-(5-fluoro-6-(trifluoromethyl)pyridin-3-yl)phenol hydrochloride]	not in solution
